Where two headings read alike, the source gives them in different places.
Legend:
[1] = cited from earlier work
Excerpt: The maximum a posteriori Bayesian estimation method has already been used to support vancomycin dosing decisions in adults (Deng et al., [2013]; Jacqz-Aigrain et al., [2015]) and children (Le et al., [2014]). To obtain accurate estimation with this method for individualized therapy, it is crucial that reliable population pharmacokinetic characteristics are known for the target patients. […] (H ...

[2] = Population pharmacokinetic modeling of vancomycin (NONMEM, FOCE-I, one-compartment, first-order elimination); conditions: for θ4, volume of distribution V / θ5, exponent of body weight on V / θ1, clearance CL: final model
Description: Chinese neonates who received vancomycin in the neonatal ICU at Shanghai Children's Hospital (Shanghai, China) between January 2013 and December 2016 were enrolled. Patients included in this study were neonates with PMA ≤ 48 weeks for preterm neonates and with postnatal age (PNA) ≤ 28 days for term neonates. All patients were treated with vancomycin for at least 3 days, and at least one vancomycin concentration was assayed. Patients with extracorporeal membrane oxygenation or continuous renal replacement therapy were excluded from the current study. The following information was retrospectively collected from electronic medical records: gestational age (GA), PMA, PNA, body weight (WT), dosing history and concentration of vancomycin, serum creatinine (Scr) levels, clinical laboratory tests of other renal and hepatic functions, and co-administered medications.
The dose of vancomycin (Vancocin, Lilly, S.A, Suzhou, China) was 10–15 mg/kg, which was administrated every 8 h (q8h) or every 12 h (q12h) with a 2-h infusion, in accordance with local protocols. Blood samples were collected 1 h after completion of drug infusion (peak concentration) or half an hour before the start of vancomycin administration (trough concentration) for each patient. Trough and peak concentrations were obtained after at least four repeated doses. Potential outlier data points (observations) were identified by employing conditional weighted residual (CWRES) results outside a range of ± 6 (Byon et al., [2013]).
Population pharmacokinetic modeling was performed using the NONMEM program (Version 7.4; Icon Inc, PA, USA) compiled with gFortran (Version 4.9.2; http://www.gfortran.org). R (Version 3.3.1; http://www.r-project.org) and the Xpose package (Version 4.5.3; http://xpose.sourceforge.net) were used for visual diagnosis. The first-order conditional estimation method with η–ε interaction (FOCE-I) was used throughout the model-building procedure (Wählby et al., [2001]).
The vancomycin concentration data were fitted by the one or two compartment with a first-order elimination model. NONMEM subroutines were specified as ADVAN1-TRANS2 or ADVAN3-TRANS4, respectively.
An exponential model (Equation 1) was used to account for inter-individual variability (IIV):
Residual unexplained variability was tested by an additive model (Equation 2), exponential model (Equation 3), or a combined additive and exponential model (Equation 4):
Four different models based on allometric scaling were tested using Equation (5): (5) Pi= TV(P)×(COV/COVmedian)^θ×MF
The robustness of the model was assessed using a nonparametric bootstrap (Ette, [1997]), with repetition of 2000 NONMEM runs of the final model. The bootstrap median parameter values and the percentile bootstrap 95% confidence intervals were compared with the respective values estimated from the final model.

[3] = Vancomycin trough and peak concentrations, fluorescence polarization immunoassay; format: in vivo, Chinese neonates; conditions: after at least four doses, 10–15 mg/kg q8h or q12h, FPIA
Description: Concentrations of vancomycin were determined using the fluorescence polarization immunoassay with an ARCHITECT i2000SR (Abbott Laboratories, Chicago, IL, USA). The limit of detection was 1 mg/L, and the calibration range of this assay was 3 to 50 mg/L. The intra-day and inter-day coefficients of variation (CVs) were all < 20%.

[4] = Model III, WT-dependent exponent model
[5] = Model IV, age-dependent exponent model

**Q.** What does the source list for `CN[C@H](CC(C)C)C(=O)N[C@H]1C(=O)N[C@@H](CC(N)=O)C(=O)N[C@H]2C(=O)N[C@H]3C(=O)N[C@H](C(=O)N[C@H](C(=O)O)c4cc(O)cc(O)c4-c4cc3ccc4O)[C@H](O)c3ccc(c(Cl)c3)Oc3cc2cc(c3O[C@@H]2O[C@H](CO)[C@@H](O)[C@H](O)[C@H]2O[C@H]2C[C@](C)(N)[C@H](O)[C@H](C)O2)Oc2ccc(cc2Cl)[C@H]1O` [vancomycin]?
**A.** clearance (CL) ([1]; adult Caucasian patients, first of two values, ref Guay et al., [1993], Sánchez et al., [2010]): 4.03 ± 1.7 L/h; clearance (CL) ([1]; adult Caucasian patients, second of two values, ref Guay et al., [1993], Sánchez et al., [2010]): 5.83 ± 2.39 L/h; clearance (CL) ([1]; adult Chinese patients, second of two values, ref He et al., [2014], Lin et al., [2015]): 6.06 ± 2.46 L/h; average clearance across all three populations ([1]; neonatal patient with weight of 3 kg and PMA of 40 weeks, Caucasian, Japanese, Malaysian neonates, ref Seay et al., [1994] to Lo et al., [2010] (b5)): 0.08 to 0.50 L/h; k, exponent for body weight (RSE%) ([2]; Model I, simple exponent model): 1.57 (10.9%); CLp typical value of apparent clearance (RSE%) ([2]; Model I, simple exponent model, MF = 1): 0.319 (5.1%) L/h; Hill (RSE%) ([2]; Model II, maturation model): 4.45 (105%); TM50, age at which clearance maturation reaches 50% of that of adults (RSE%) ([2]; Model II, maturation model): 46.9 (102%); CLp typical value of apparent clearance (RSE%) ([2]; Model II, maturation model, k fixed 0.75): 0.911 (235%) L/h; k50, body weight at which there is a 50 % decrease in the kmax (RSE%) ([2]; Model III): 12.7 (53.1%); kmax, maximum decrease of the exponent (RSE%) ([2]; Model III): 1.08 (25%); θ0, exponent at a theoretical WT of 0 kg (RSE%) ([2]; Model III): 1.57 (10.9%); CLp typical value of apparent clearance (RSE%) [2, 4]: 0.319 (5.1%) L/h; Hill (RSE%) [2, 4]: 23.6 (17.2%); k50, age at which there is a 50 % decrease in the kmax (RSE%) ([2]; Model IV): 62.3 (22%); kmax, maximum decrease of the exponent (RSE%) ([2]; Model IV): 1.08 (25%); θ0, exponent at age at birth (RSE%) ([2]; Model IV): 1.57 (10.9%); CLp typical value of apparent clearance (RSE%) [2, 5]: 0.319 (5.1%) L/h; Hill (RSE%) [2, 5]: 60.7 (23.4%); θ4, volume of distribution V ([2]; NONMEM estimate, WT 2.9 kg): 2.63 L; θ5, exponent of body weight on V ([2]; NONMEM estimate, [WT(kg)/2.9]^θ5): 1.05; θ1, clearance CL ([2]; NONMEM estimate, typical neonate WT 2.9 kg, Scr 23.3 μmol/L): 0.309 L/h; θ1, clearance CL ([2]; bootstrap median, 2000 runs): 0.308 L/h; θ4, volume of distribution V ([2]; bootstrap median, 2000 runs): 2.62 L; θ5, exponent of body weight on V ([2]; bootstrap median, 2000 runs): 1.06; Peak concentration, median (range) ([3]; 1 h after completion of 2-h infusion, 90 peak samples): 20.3 (4.09–51.9) mg/L; Peak concentration ([3]; column 'Modeling group' (value ± spread), 1 h after completion of 2-h infusion, 90 peak samples): 22.3 ± 11.0 mg/L; Trough concentration ([3]; column 'Modeling group' (value ± spread), half an hour before administration, 2-h infusion, 75 trough samples, 80 neonates): 11.2 ± 7.92 mg/L; Trough concentration, median (range) ([3]; half an hour before administration, 2-h infusion, 75 trough samples): 9.15 (3.14–42.9) mg/L
